# In paper PMC6177439, “Peptide-oligonucleotide conjugates exhibiting pyrimidine-X cleavage specificity efficiently silence miRNA target acting synergistically with RNase H” (Scientific Reports, 2018):
# Experiments:
# miR-17 [1] = assay: RNA cleavage assay, miR-17; assay type: biochemical; conditions: miR-17 1 µM, conjugate 20 µM, 37 °C, 24 h
# Description: (§1) The reaction mixture (5 µl) contained 10^5 cpm (Cherenkov’s counting) of [^32P]-RNA, 1 μM unlabeled RNA, and one of the conjugates at a concentration ranging from 1 to 100 μM, 50 mM Tris-HCl, pH 7.0, 0.2 M KCl, and 1 mM EDTA. […] To identify cleavage sites, imidazole and T1-ladders produced by partial RNA cleavage with 2 M imidazole buffer (pH 7.0)[41] and with RNase T1[42], respectively, were run in parallel. To obtain quantitative data, gels were dried and analyzed using Molecular Imager FX (Bio-Rad, USA). The total extent of RNA cleavage and the extent of RNA cleavage at each individual site were determined with Quantity One software.
# [2] = test system: 96 nts fragment of HIV-1 RNA; parameters: method as in PMID 15047859, PMID 16615805; conditions: non-complementary RNA substrates; cited from earlier work
# miR-21^hybrid = assay: RNA cleavage assay, miR-21^hybrid; assay type: biochemical; conditions: RNA 1 µM, conjugate 20 µM, 37 °C, 24 h time point
# Description: as §1
# miR-21 [3] = assay: RNA cleavage assay, miR-21; assay type: biochemical; conditions: miR-21 1 µM, conjugate 100 µM, 37 °C, 0-144 h
# Description: as §1
# miR-21 [4] = assay: Gel-retardation assay, hybridization with miR-21; assay type: binding; conditions: at equimolar concentration and higher; miR-21 1 µM, 0.5-10 µM oligonucleotide or conjugate, 37 °C, 1 h, 50 mM Tris-HCl pH 7.0, 0.2 M KCl, 1 mM EDTA, 15% native PAAG
# Description: The samples were loaded onto the running gel immediately after quenching the reaction with an interval of 1 min. […] To obtain quantitative data, gels were dried and analyzed using Molecular Imager FX (Bio-Rad, USA). The extent of binding of oligonucleotide to miR-21 was determined using Quantity One software as a ratio of radioactivity measured in the complex to the total radioactivity applied onto the gel lane.
# melanoma B16 cells = assay: xCELLigence real-time analysis of cell proliferation; assay type: cell-based, murine; conditions: 1 µM with Lipofectamine 2000, 120 h; for cell index: untreated control cell index 5
# Description: Proliferation experiments were performed using an xCELLigence real-time cell analysis (RTCA) system (ACEABiosciences, USA) in an atmosphere of 5% CO2 at 37 °C. B16 melanoma cells were seeded at a concentration of 5 × 10^3 cells per well of 16-well E-Plates. The following day, the cells were transfected with conjugate 4, control conjugate 7 or oligonucleotide 4 at 1 µM concentration using Lipofectamine™ 2000 (Invitrogen, USA). In 4 h after transfection, the medium in the wells was replaced with DMEM medium containing 10% of FBS and 1% of antibiotics antimycotic solution. Cell proliferation experiments were run for 120 h and Cell Index was monitored every 30 min for the whole experiment duration. Four replications of each cell densities were used in the cell proliferation experiment.
# E2F1 = assay: Western blot of miR-17 protein target E2F1 in B16 cells; assay type: cell-based, murine; conditions: 1 µM, 72 h after transfection, GAPDH internal control
# Description: Cell lysates were separated in 12.5% SDS-PAGE and transferred to a PVDF membrane using a semi-dry transfer. The membranes were blocked for 1 h in 3% nonfat dried milk in TBST (20 mM Tris- HCl, pH 7.6,137mMNaCl, 0.1% Tween), and incubated with primary antibodies against E2F1 (ab179445, Abcam, UK, 1:500) and reference protein GAPDH (ab9485, Abcam, UK, 1:1000) at +4 °C for night. After three washes with TBST, membranes were incubated with secondary HRP-conjugated goat anti-rabbit antibodies (ab6721, Abcam, UK) at room temperature for 1 h. After three washes with TBST luminescence detection was performed by Versadoc 4000 MP (Bio-Rad, USA) using Chemiluminescent reagent kit (Abcam, USA). Data were analyzed using GelPro 4.0 software (Media Cybernetics, USA).
# miR-17 [5] = assay: miR-17 level in B16 cells by stem-loop qPCR; assay type: cell-based, murine; conditions: for decrease in the miR-17 level: 24 h after transfection with Lipofectamine 2000, 0.5 and 1 µM, normalized to U6, mean of three independent experiments
# Description: Murine B16 melanoma cells (1.5–1 × 10^5 per well of 24-well plate) were pre-seeded in DMEM containing 10% FBS a day before transfection and were incubated at 37 °C in a humidified atmosphere with 5% CO2. Before the transfection, the medium was replaced by serum-free and antibiotic-free DMEM, and cells were incubated for 4 h with 0.05–1 µM of conjugate 4 precomplexed with Lipofectamine 2000 (Invitrogen, USA) in Opti-MEM medium according to manufacturer’s instructions. Then, the medium was replaced by culture medium containing 10% FBS and 1% antibiotic antimycotic solution ([…] streptomycin, 10000 IU/mL penicillin, and 25 µg/mL amphotericin), and the cells were cultivated for 24 h under the same conditions. After 24 h, total RNA was isolated from the cells using TRIzol Reagent (Invitrogen, USA) according to the manufacturer’s protocol.
# Expression of miR-17, miR-21, miR-18a and let-7g in B16 cells was analyzed using stem-loop PCR technology[43],[44]. cDNA synthesis was carried out using SuperScript III reverse transcriptase (SSIII RT, Invitrogen, USA) as previously described. The RT and PCR primers used in the study are presented in Table S1 (Supplementary information). PCR amplification was carried out in a total volume of 20 µl, using Maxima Hot Start Taq DNA polymerase (Thermo Scientific, USA), 1 × PCR Buffer, 1.5 mM MgCl2, 0.2 mM dNTPs, 1 × EvaGreen (Biotium, Hayward, USA), and […] of PCR sense and antisense primers. The reaction was performed with initial preheating at 94 °C for 4 min and 40 cycles of 94 °C for 40 s, 61 °C for 30 s, and 72 °C for 30 s, followed by melting point determination. The obtained PCR data were analyzed using standard Bio-Rad iQ5 v.2.0 software. For each sample, the threshold cycle (Ct) was determined. Quantitative assessment of the level of transcripts representation and relative miRNA expression was performed by comparing the Ct values for miR-17 and a reference U6.
# let 7-g = assay: Off-target let-7g level in B16 cells by stem-loop qPCR; assay type: cell-based, murine; conditions: 1 µM, 24 h, Lipofectamine 2000, normalized to U6
# miR-18a = assay: Off-target miR-18a level in B16 cells by stem-loop qPCR; assay type: cell-based, murine; conditions: 1 µM, 24 h, Lipofectamine 2000, normalized to U6
# miR-21 [6] = assay: Off-target miR-21 level in B16 cells by stem-loop qPCR; assay type: cell-based, murine; conditions: 1 µM, 24 h, Lipofectamine 2000, normalized to U6
# miR-17 [7] = assay: Cleavage of duplexes miR-17/ON and miR-17/conjugate by RNase H; assay type: biochemical; conditions: miR-17 10 µM, conjugate 5 µM, 37 °C
# Description: The reaction mixture (10 µl) contained 10^5 cpm (Cherenkov’s counting) of [^32P]-miR-17, 10 µM unlabeled miR-17, oligonucleotide 4 or conjugate 4 at a concentration of 5 µM, 50 mM Tris-HCl, pH 7.0, 0.2 M KCl, and 1 mM EDTA was incubated at 37 °C for 20 min. Then, RNase H (Thermo Scientific, USA) was added to the reaction mixture to a final concentration 100 U/ml and incubated at 37 °C. At different time points, 30 min and 1, 2, 4, 8, and 24 h, an aliquot was taken and the reaction was quenched by precipitation of RNA with 2% LiClO4 in acetone. RNA cleavage products were analyzed by electrophoresis in denaturing gel as described above.
substance,measurement,setting,value
"NH2—Gly(ArgLeu)4—P—TCAA—(DEG)—CTGTAAGCACTTTGGTCAGCGAAAGCTGAC [conjugate 5, miRNase targeted to miR-17, as conjugate 4 with single DEG linker]",cleavage of miR-17 at a 20-fold excess of conjugate,miR-17 [1],3%
"NH2-Gly(ArgLeu)4-TCAA [short peptide-oligonucleotide conjugate, small chemical ribonuclease used as catalytic construction]",cleavage specificity,[2],Pyr-A cleavage specificity
NH2—Gly(ArgLeu)4—P—TCAA—(DEG)2—TCTGATAAGCTACGTAGCGAAAGCTACG [conjugate 2],total extent of miR-21^hybrid cleavage at a 20-fold excess of conjugates,miR-21^hybrid,85%
same,cleavage efficiency of miR-21 at a 100-fold excess of conjugate,miR-21 [3],50%
same,hybridization (binding) efficiency with miR-21,miR-21 [4],48%
"NH2—Gly(ArgLeu)4—P—TCAA—(TrEG)2—CGATAAATAACGCGCAAGTCAGCGAAAGCTGACTTG [conjugate 7, control conjugate addressed to luciferase mRNA]",cell index,melanoma B16 cells,3.2
same,increase of the level of E2F1 protein as compared with control,E2F1,no statistically significant change
same,decrease in the miR-17 level,miR-17 [5],does not evoke any statistically significant reduction
NH2—Gly(ArgLeu)4—P— (DEG)2—CTGTAAGCACTTTGGTCAGCGAAAGCTGAC [conjugate 6],cleavage of miR-17 at a 20-fold excess of conjugate,miR-17 [1],complete loss of ribonuclease activity
"NH2—Gly(ArgLeu)4—P—TCAA—(DEG)2—AGT CTG ATA AGC TA [conjugate 1, peptide-oligonucleotide conjugate (miRNase) targeted to miR-21, linear 14 nt oligonucleotide, double DEG linker]",total extent of miR-21^hybrid cleavage at a 20-fold excess of conjugates,miR-21^hybrid,55%
same,cleavage efficiency of miR-21 at a 100-fold excess of conjugate,miR-21 [3],50%
same,hybridization (binding) efficiency with miR-21,miR-21 [4],25%
NH2—Gly(ArgLeu)4—P—TCAA—(DEG)2—CTGTAAGCACTTTGGTCAGCGAAAGCTGAC [conjugate 4],expression level of let 7-g versus controls,let 7-g,no statistically significant differences
same,cell index,melanoma B16 cells,1
same,fold decrease of growth rate / inhibition of cell proliferation,melanoma B16 cells; versus untreated cells,5 fold
same,increase of the level of E2F1 protein as compared with control,E2F1,2.2 fold
same,advantage in inhibition efficiency in comparison with antisense oligonucleotide 4,miR-17 [5],2 fold
same,decrease in the miR-17 level,miR-17 [5],80%
same,lowest concentration with statistically significant reduction of miR-17 level,"miR-17 [5]; 24 h after transfection, range 0.05-1 µM",0.1 µM
same,cleavage of miR-17 at a 20-fold excess of conjugate,miR-17 [1],9%
same,expression level of miR-18a versus controls,miR-18a,no statistically significant differences
same,expression level of miR-21 versus controls,miR-21 [6],no statistically significant differences
same,increase of conjugate activity (miR-17 cleavage at conjugate sites) in the presence of RNase H,miR-17 [7]; RNase H 100 U/ml,11 fold
same,"miR-17 cleavage at RNase H sites during the first 2 h, with RNase H","miR-17 [7]; RNase H 100 U/ml, 2 h",45%
same,"miR-17 cleavage at sites C17-A18 and U21-A22 after 4 h, with RNase H","miR-17 [7]; RNase H 100 U/ml, 4 h",47%
same,"miR-17 destroyed after 8 h, with RNase H","miR-17 [7]; RNase H 100 U/ml, 8 h",95%
same,miR-17 cleavage by conjugate alone under two-fold excess of RNA,"miR-17 [7]; no RNase H, 24 h",9%
